According to ChEMBL document CHEMBL1201862, “PubChem BioAssay data set” (2004):
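Step 1: Grow cells in 96-well plates. Step 2: Expose to compound for 48 hours at 5 concentrations. Step 3: Interpolate endpoints linearly; if unreached, use highest concentration. GI50 marks 50% less growth.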 Calls of active or inactive are those of the source. No stated cut-off is given here; in the data, active = GI50 up to about 1.1 µM and inactive = higher.

How the values were obtained:
Assay in all cases: inhibition of tumour cell growth, NCI panel, 48 h
CCRF-CEM = system: CCRF-CEM
MDA-MB-435 = system: MDA-MB-435
COLO 205 = system: COLO 205
UACC-257 = system: UACC-257
HCT-15 = system: HCT-15
SNB-19 = system: SNB-19
A498 = system: A498
K562 = system: K562
Malme-3M = system: Malme-3M
SF-539 = system: SF-539
NCI/ADR-RES = system: NCI/ADR-RES
CAKI-1 = system: CAKI-1
Hs-578T = system: Hs-578T
786-0 = system: 786-0
U-251 = system: U-251
BT-549 = system: BT-549
LOX IMVI = system: LOX IMVI
NCI-H522 = system: NCI-H522
MDA-MB-231 = system: MDA-MB-231
NCI-H226 = system: NCI-H226
KM12 = system: KM12
OVCAR-4 = system: OVCAR-4
HCT-116 = system: HCT-116
SK-MEL-5 = system: SK-MEL-5
SF-295 = system: SF-295
ACHN = system: ACHN
MCF7 = system: MCF7
EKVX = system: EKVX
UACC-62 = system: UACC-62
OVCAR-8 = system: OVCAR-8
M14 = system: M14
OVCAR-3 = system: OVCAR-3
MDA-N = system: MDA-N
SR = system: SR
SK-MEL-2 = system: SK-MEL-2
RXF 393 = system: RXF 393
SNB-75 = system: SNB-75
SK-MEL-28 = system: SK-MEL-28
MOLT-4 = system: MOLT-4
HCC 2998 = system: HCC 2998
PC-3 = system: PC-3
SN12C = system: SN12C
UO-31 = system: UO-31
HOP-92 = system: HOP-92
HOP-62 = system: HOP-62
RPMI-8226 = system: RPMI-8226
NCI-H460 = system: NCI-H460
HT-29 = system: HT-29
OVCAR-5 = system: OVCAR-5
NCI-H23 = system: NCI-H23
DU-145 = system: DU-145
IGROV-1 = system: IGROV-1
A549 = system: A549
SW-620 = system: SW-620
SF-268 = system: SF-268

Question: `CC1CCOc2ccc(cc2)/C=N\c2ccc(cc2)CCc2ccc(cc2)/N=C\c2ccc(cc2)OCC1` was tested. Which GI50 (CCRF-CEM) did it give?
Answer: 29.8 µM (inactive)

Question: And the GI50 (MDA-MB-435)?
Answer: > 100 µM (inactive)

Question: And the GI50 (COLO 205)?
Answer: > 100 µM (inactive)

Question: What about the GI50 (UACC-257) of the same compound?
Answer: > 100 µM (inactive)

Question: What about the GI50 (HCT-15) of the same compound?
Answer: > 100 µM

Question: And the GI50 (SNB-19)?
Answer: > 100 µM (inactive)

Question: What about the GI50 (A498) of the same compound?
Answer: > 100 µM (inactive)

Question: What about the GI50 (K562) of the same compound?
Answer: > 100 µM (inactive)

Question: What about the GI50 (Malme-3M) of the same compound?
Answer: > 100 µM (inactive)

Question: And the GI50 (SF-539)?
Answer: > 100 µM (inactive)

Question: And the GI50 (NCI/ADR-RES)?
Answer: > 100 µM (inactive)

Question: What about the GI50 (CAKI-1) of the same compound?
Answer: > 100 µM (inactive)

Question: And the GI50 (Hs-578T)?
Answer: > 100 µM (inactive)

Question: What about the GI50 (786-0) of the same compound?
Answer: > 100 µM (inactive)

Question: What about the GI50 (U-251) of the same compound?
Answer: > 100 µM (inactive)

Question: And the GI50 (BT-549)?
Answer: > 100 µM (inactive)

Question: And the GI50 (LOX IMVI)?
Answer: > 100 µM (inactive)

Question: What about the GI50 (NCI-H522) of the same compound?
Answer: > 100 µM (inactive)

Question: And the GI50 (MDA-MB-231)?
Answer: > 100 µM (inactive)

Question: And the GI50 (NCI-H226)?
Answer: > 100 µM (inactive)

Question: What about the GI50 (KM12) of the same compound?
Answer: > 100 µM (inactive)

Question: What about the GI50 (OVCAR-4) of the same compound?
Answer: > 100 µM (inactive)

Question: What about the GI50 (HCT-116) of the same compound?
Answer: > 100 µM (inactive)

Question: And the GI50 (SK-MEL-5)?
Answer: > 100 µM (inactive)

Question: And the GI50 (SF-295)?
Answer: 70.3 µM (inactive)

Question: What about the GI50 (ACHN) of the same compound?
Answer: > 100 µM (inactive)

Question: What about the GI50 (MCF7) of the same compound?
Answer: > 100 µM (inactive)

Question: What about the GI50 (EKVX) of the same compound?
Answer: > 100 µM (inactive)

Question: What about the GI50 (UACC-62) of the same compound?
Answer: > 100 µM (inactive)

Question: And the GI50 (OVCAR-8)?
Answer: > 100 µM (inactive)

Question: What about the GI50 (M14) of the same compound?
Answer: > 100 µM (inactive)

Question: What about the GI50 (OVCAR-3) of the same compound?
Answer: > 100 µM (inactive)

Question: And the GI50 (MDA-N)?
Answer: > 100 µM (inactive)

Question: What about the GI50 (SR) of the same compound?
Answer: > 100 µM (inactive)

Question: What about the GI50 (SK-MEL-2) of the same compound?
Answer: > 100 µM (inactive)

Question: What about the GI50 (RXF 393) of the same compound?
Answer: 35.6 µM (inactive)

Question: And the GI50 (SNB-75)?
Answer: 24.1 µM (inactive)

Question: What about the GI50 (SK-MEL-28) of the same compound?
Answer: > 100 µM (inactive)

Question: What about the GI50 (MOLT-4) of the same compound?
Answer: > 100 µM (inactive)

Question: What about the GI50 (HCC 2998) of the same compound?
Answer: > 100 µM (inactive)

Question: What about the GI50 (PC-3) of the same compound?
Answer: > 100 µM (inactive)

Question: And the GI50 (SN12C)?
Answer: > 100 µM (inactive)

Question: And the GI50 (UO-31)?
Answer: > 100 µM (inactive)

Question: And the GI50 (HOP-92)?
Answer: 60.5 µM (inactive)

Question: And the GI50 (HOP-62)?
Answer: 18.2 µM (inactive)

Question: And the GI50 (RPMI-8226)?
Answer: > 100 µM (inactive)

Question: And the GI50 (NCI-H460)?
Answer: > 100 µM (inactive)

Question: And the GI50 (HT-29)?
Answer: > 100 µM (inactive)

Question: And the GI50 (OVCAR-5)?
Answer: > 100 µM (inactive)

Question: And the GI50 (NCI-H23)?
Answer: > 100 µM (inactive)

Question: And the GI50 (DU-145)?
Answer: > 100 µM (inactive)

Question: What about the GI50 (IGROV-1) of the same compound?
Answer: > 100 µM (inactive)

Question: And the GI50 (A549)?
Answer: > 100 µM (inactive)

Question: What about the GI50 (SW-620) of the same compound?
Answer: > 100 µM (inactive)

Question: What about the GI50 (SF-268) of the same compound?
Answer: > 100 µM (inactive)
